Source: PubChem BioAssay AID2060622 (Molecular Pharmacology Branch, DTP, NCI, 2025)

System: 242566-281-R-J2-PDC complex spheroid viability
Assay: Anticancer human tumor 242566-281-R-J2-PDC patient-derived pancreatic carcinoma cell line growth inhibition [CLK]
Details: for IC50: curve of first compound; for viability, T/C: stronger effect = lower value
Summary of the method: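 Multi-cell-type spheroids combined patient-derived tumor cells with HUVEC endothelial cells and human mesenchymal stem cells. Paired agents were dosed in half-log steps down from about clinical Cmax, or from 10 microM where Cmax was unknown.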

[1] = second compound 0.0316 µM, first compound 0.0316 µM
[2] = second compound 0.0316 µM, first compound 0.1 µM
[3] = second compound 0.0316 µM, first compound 0.316 µM
[4] = second compound 0.0316 µM, first compound 1 µM
[5] = second compound 0.0316 µM, first compound 3.16 µM
[6] = second compound 0.0316 µM, first compound 10 µM
[7] = second compound 0.1 µM, first compound 0.0316 µM
[8] = second compound 0.1 µM, first compound 0.1 µM
[9] = second compound 0.1 µM, first compound 0.316 µM
[10] = second compound 0.1 µM, first compound 1 µM
[11] = second compound 0.1 µM, first compound 3.16 µM
[12] = second compound 0.1 µM, first compound 10 µM
[13] = second compound 0.316 µM, first compound 0.0316 µM
[14] = second compound 0.316 µM, first compound 0.1 µM
[15] = second compound 0.316 µM, first compound 0.316 µM
[16] = second compound 0.316 µM, first compound 1 µM
[17] = second compound 0.316 µM, first compound 3.16 µM
[18] = second compound 0.316 µM, first compound 10 µM
[19] = second compound 1 µM, first compound 0.0316 µM
[20] = second compound 1 µM, first compound 0.1 µM
[21] = second compound 1 µM, first compound 0.316 µM
[22] = second compound 1 µM, first compound 1 µM
[23] = second compound 1 µM, first compound 3.16 µM
[24] = second compound 1 µM, first compound 10 µM
[25] = second compound 3.16 µM, first compound 0.0316 µM
[26] = second compound 3.16 µM, first compound 0.1 µM
[27] = second compound 3.16 µM, first compound 0.316 µM
[28] = second compound 3.16 µM, first compound 1 µM
[29] = second compound 3.16 µM, first compound 3.16 µM
[30] = second compound 3.16 µM, first compound 10 µM
[31] = second compound 10 µM, first compound 0.0316 µM
[32] = second compound 10 µM, first compound 0.1 µM
[33] = second compound 10 µM, first compound 0.316 µM
[34] = second compound 10 µM, first compound 1 µM
[35] = second compound 10 µM, first compound 3.16 µM
[36] = second compound 10 µM, first compound 10 µM
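Further: spheroids exposed to compounds for 7 days before readout.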
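Wherever viability, T/C is given: 100% = DMSO vehicle control wells.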

Question: Which IC50 (second compound 0.0316 µM) does the source give for `CC1(C)CCC(CN2CCN(c3ccc(C(=O)NS(=O)(=O)c4ccc(NCC5CCOCC5)c([N+](=O)[O-])c4)c(Oc4cnc5[nH]ccc5c4)c3)CC2)=C(c2ccc(Cl)cc2)C1` + CN1CCN(c2cc(C(=O)Nc3cc4cc(-c5cnn(C)c5)ccc4cn3)ccn2)CC1 here?
Answer: 6540 nM

Question: What about the IC50 (second compound 0.1 µM) of the same molecule?
Answer: 6080 nM

Question: And the IC50 (second compound 0.316 µM)?
Answer: < 31.6 nM

Question: And the IC50 (second compound 1 µM)?
Answer: < 31.6 nM

Question: What about the IC50 (second compound 3.16 µM) of the same molecule?
Answer: < 31.6 nM

Question: What about the IC50 (second compound 10 µM) of the same molecule?
Answer: < 31.6 nM

Question: What about the viability, T/C [1] of the same molecule?
Answer: 109%

Question: What about the viability, T/C [2] of the same molecule?
Answer: 109%

Question: And the viability, T/C [3]?
Answer: 101%

Question: And the viability, T/C [4]?
Answer: 112%

Question: What about the viability, T/C [5] of the same molecule?
Answer: 109%

Question: And the viability, T/C [6]?
Answer: 16.1%

Question: And the viability, T/C [7]?
Answer: 100%

Question: And the viability, T/C [8]?
Answer: 92.8%

Question: What about the viability, T/C [9] of the same molecule?
Answer: 93.2%

Question: What about the viability, T/C [10] of the same molecule?
Answer: 96.9%

Question: What about the viability, T/C [11] of the same molecule?
Answer: 107%

Question: What about the viability, T/C [12] of the same molecule?
Answer: 13.4%

Question: And the viability, T/C [13]?
Answer: 38.1%

Question: What about the viability, T/C [14] of the same molecule?
Answer: 34%

Question: What about the viability, T/C [15] of the same molecule?
Answer: 31.9%

Question: And the viability, T/C [16]?
Answer: 38.9%

Question: What about the viability, T/C [17] of the same molecule?
Answer: 36.2%

Question: And the viability, T/C [18]?
Answer: 5.57%

Question: What about the viability, T/C [19] of the same molecule?
Answer: 5.27%

Question: What about the viability, T/C [20] of the same molecule?
Answer: 5.79%

Question: And the viability, T/C [21]?
Answer: 6.15%

Question: What about the viability, T/C [22] of the same molecule?
Answer: 6.22%

Question: And the viability, T/C [23]?
Answer: 5.21%

Question: What about the viability, T/C [24] of the same molecule?
Answer: 1.17%

Question: What about the viability, T/C [25] of the same molecule?
Answer: 7.94%

Question: What about the viability, T/C [26] of the same molecule?
Answer: 7.2%

Question: What about the viability, T/C [27] of the same molecule?
Answer: 8.15%

Question: And the viability, T/C [28]?
Answer: 7.96%

Question: And the viability, T/C [29]?
Answer: 6.33%

Question: And the viability, T/C [30]?
Answer: 1.38%

Question: And the viability, T/C [31]?
Answer: 2.16%

Question: What about the viability, T/C [32] of the same molecule?
Answer: 2.09%

Question: What about the viability, T/C [33] of the same molecule?
Answer: 1.92%

Question: And the viability, T/C [34]?
Answer: 2.08%

Question: What about the viability, T/C [35] of the same molecule?
Answer: 1.25%

Question: And the viability, T/C [36]?
Answer: 0.24%

Question: Which results are given for `NC(=O)C(=Cn1cnc(-c2cc(C(F)(F)F)cc(C(F)(F)F)c2)n1)c1cncnc1` + CN1CCN(c2cc(C(=O)Nc3cc4cc(-c5cnn(C)c5)ccc4cn3)ccn2)CC1?
Answer: IC50 (second compound 0.0316 µM): 978 nM; IC50 (second compound 0.1 µM): 465 nM; IC50 (second compound 0.316 µM): < 9.49 nM; IC50 (second compound 1 µM): < 9.49 nM; IC50 (second compound 3.16 µM): < 9.49 nM; IC50 (second compound 10 µM): < 9.49 nM; viability, T/C (second compound 0.0316 µM, first compound 0.00949 µM): 99.3%; viability, T/C (second compound 0.0316 µM, first compound 0.03 µM): 106%; viability, T/C (second compound 0.0316 µM, first compound 0.0949 µM): 97%; viability, T/C (second compound 0.0316 µM, first compound 0.3 µM): 84.1%; viability, T/C (second compound 0.0316 µM, first compound 0.949 µM): 50.9%; viability, T/C (second compound 0.0316 µM, first compound 3 µM): 19.7%; viability, T/C (second compound 0.1 µM, first compound 0.00949 µM): 92.5%; viability, T/C (second compound 0.1 µM, first compound 0.03 µM): 83.6%; viability, T/C (second compound 0.1 µM, first compound 0.0949 µM): 84.4%; viability, T/C (second compound 0.1 µM, first compound 0.3 µM): 60%; viability, T/C (second compound 0.1 µM, first compound 0.949 µM): 31.7%; viability, T/C (second compound 0.1 µM, first compound 3 µM): 7.32%; viability, T/C (second compound 0.316 µM, first compound 0.00949 µM): 29.2%; viability, T/C (second compound 0.316 µM, first compound 0.03 µM): 16.8%; viability, T/C (second compound 0.316 µM, first compound 0.0949 µM): 6.44%; viability, T/C (second compound 0.316 µM, first compound 0.3 µM): 3.56%; viability, T/C (second compound 0.316 µM, first compound 0.949 µM): 3.41%; viability, T/C (second compound 0.316 µM, first compound 3 µM): 4.67%; viability, T/C (second compound 1 µM, first compound 0.00949 µM): 3.11%; viability, T/C (second compound 1 µM, first compound 0.03 µM): 4.63%; viability, T/C (second compound 1 µM, first compound 0.0949 µM): 6.18%; viability, T/C (second compound 1 µM, first compound 0.3 µM): 6.13%; viability, T/C (second compound 1 µM, first compound 0.949 µM): 6.09%; viability, T/C (second compound 1 µM, first compound 3 µM): 5.22%; viability, T/C (second compound 3.16 µM, first compound 0.00949 µM): 5.89%; viability, T/C (second compound 3.16 µM, first compound 0.03 µM): 6.16%; viability, T/C (second compound 3.16 µM, first compound 0.0949 µM): 8.1%; viability, T/C (second compound 3.16 µM, first compound 0.3 µM): 7.76%; viability, T/C (second compound 3.16 µM, first compound 0.949 µM): 7.74%; viability, T/C (second compound 3.16 µM, first compound 3 µM): 6.2%; viability, T/C (second compound 10 µM, first compound 0.00949 µM): 1.11%; viability, T/C (second compound 10 µM, first compound 0.03 µM): 1.56%; viability, T/C (second compound 10 µM, first compound 0.0949 µM): 0.89%; viability, T/C (second compound 10 µM, first compound 0.3 µM): 1.02%; viability, T/C (second compound 10 µM, first compound 0.949 µM): 0.68%; viability, T/C (second compound 10 µM, first compound 3 µM): 0.27%

Question: How did the IC50 (second compound 0.0316 µM) turn out when `Nc1ccccc1NC(=O)c1ccc(CNC(=O)OCc2cccnc2)cc1` + CN1CCN(c2cc(C(=O)Nc3cc4cc(-c5cnn(C)c5)ccc4cn3)ccn2)CC1 was run?
Answer: 2690 nM

Question: What about the IC50 (second compound 0.1 µM) of the same molecule?
Answer: 1540 nM

Question: And the IC50 (second compound 0.316 µM)?
Answer: < 31.6 nM

Question: What about the IC50 (second compound 1 µM) of the same molecule?
Answer: < 31.6 nM

Question: What about the IC50 (second compound 3.16 µM) of the same molecule?
Answer: < 31.6 nM

Question: And the IC50 (second compound 10 µM)?
Answer: < 31.6 nM

Question: What about the viability, T/C [1] of the same molecule?
Answer: 95.9%

Question: What about the viability, T/C [2] of the same molecule?
Answer: 96.1%

Question: And the viability, T/C [3]?
Answer: 84.2%

Question: What about the viability, T/C [4] of the same molecule?
Answer: 83.5%

Question: What about the viability, T/C [5] of the same molecule?
Answer: 44.2%

Question: And the viability, T/C [6]?
Answer: 10.9%

Question: And the viability, T/C [7]?
Answer: 92.5%

Question: What about the viability, T/C [8] of the same molecule?
Answer: 82.8%

Question: And the viability, T/C [9]?
Answer: 70.5%

Question: What about the viability, T/C [10] of the same molecule?
Answer: 65.8%

Question: What about the viability, T/C [11] of the same molecule?
Answer: 31.6%

Question: What about the viability, T/C [12] of the same molecule?
Answer: 5.31%

Question: What about the viability, T/C [13] of the same molecule?
Answer: 28.3%

Question: And the viability, T/C [14]?
Answer: 29.4%

Question: And the viability, T/C [15]?
Answer: 28.4%

Question: And the viability, T/C [16]?
Answer: 20.9%

Question: What about the viability, T/C [17] of the same molecule?
Answer: 6.85%

Question: What about the viability, T/C [18] of the same molecule?
Answer: 0.46%

Question: And the viability, T/C [19]?
Answer: 4.47%

Question: What about the viability, T/C [20] of the same molecule?
Answer: 4.78%

Question: What about the viability, T/C [21] of the same molecule?
Answer: 4.55%

Question: And the viability, T/C [22]?
Answer: 3.08%

Question: And the viability, T/C [23]?
Answer: 2.04%

Question: What about the viability, T/C [24] of the same molecule?
Answer: 1.1%

Question: And the viability, T/C [25]?
Answer: 9.27%

Question: And the viability, T/C [26]?
Answer: 7.2%

Question: What about the viability, T/C [27] of the same molecule?
Answer: 7.84%

Question: And the viability, T/C [28]?
Answer: 6.26%

Question: What about the viability, T/C [29] of the same molecule?
Answer: 5.4%

Question: And the viability, T/C [30]?
Answer: 3.16%

Question: What about the viability, T/C [31] of the same molecule?
Answer: 2.19%

Question: What about the viability, T/C [32] of the same molecule?
Answer: 1.81%

Question: And the viability, T/C [33]?
Answer: 1.73%

Question: And the viability, T/C [34]?
Answer: 2.14%

Question: What about the viability, T/C [35] of the same molecule?
Answer: 1.57%

Question: And the viability, T/C [36]?
Answer: 0.86%
